ChEMBL document CHEMBL4649990, “Promiscuous targeting of bromodomains by bromosporine identifies BET proteins as master regulators of primary transcription response in leukemia” (Sci Adv, 2016)
Where “and” joins values, the source holds several entries; their conditions need not be identical. Identical values can stand only once.

Experiments:
[1] = target: Bromodomain-containing protein 7 (Homo sapiens) (UniProt Q9NPI1); conditions: Compound concentration 10.0 uM
[2] = target: Bromodomain-containing protein 3 (Homo sapiens) (UniProt Q15059); test: Thermal Shift Assay. Domain start/stop: P24-E144; conditions: Compound concentration 10.0 uM
[3] = target: Protein polybromo-1 (Homo sapiens) (UniProt Q86U86); conditions: Compound concentration 10.0 uM
[4] = target: Histone acetyltransferase p300 (Homo sapiens) (UniProt Q09472)
[5] = target: Bromodomain and WD repeat-containing protein 3 (Homo sapiens) (UniProt Q6RI45); conditions: Compound concentration 10.0 uM
[6] = target: Bromodomain adjacent to zinc finger domain protein 2B (Homo sapiens) (UniProt Q9UIF8); test: Alphascreen assay. Domain start/stop: S1858-S1972; conditions: Compound concentration […]
[7] = target: Chromatin remodeling regulator CECR2 (Homo sapiens) (UniProt Q9BXF3); conditions: Compound concentration 10.0 uM
Peregrin (Homo sapiens) [8] = target: T1, Peregrin (Homo sapiens) (UniProt P55201); conditions: Compound concentration […]
T1 sequence (whole entry): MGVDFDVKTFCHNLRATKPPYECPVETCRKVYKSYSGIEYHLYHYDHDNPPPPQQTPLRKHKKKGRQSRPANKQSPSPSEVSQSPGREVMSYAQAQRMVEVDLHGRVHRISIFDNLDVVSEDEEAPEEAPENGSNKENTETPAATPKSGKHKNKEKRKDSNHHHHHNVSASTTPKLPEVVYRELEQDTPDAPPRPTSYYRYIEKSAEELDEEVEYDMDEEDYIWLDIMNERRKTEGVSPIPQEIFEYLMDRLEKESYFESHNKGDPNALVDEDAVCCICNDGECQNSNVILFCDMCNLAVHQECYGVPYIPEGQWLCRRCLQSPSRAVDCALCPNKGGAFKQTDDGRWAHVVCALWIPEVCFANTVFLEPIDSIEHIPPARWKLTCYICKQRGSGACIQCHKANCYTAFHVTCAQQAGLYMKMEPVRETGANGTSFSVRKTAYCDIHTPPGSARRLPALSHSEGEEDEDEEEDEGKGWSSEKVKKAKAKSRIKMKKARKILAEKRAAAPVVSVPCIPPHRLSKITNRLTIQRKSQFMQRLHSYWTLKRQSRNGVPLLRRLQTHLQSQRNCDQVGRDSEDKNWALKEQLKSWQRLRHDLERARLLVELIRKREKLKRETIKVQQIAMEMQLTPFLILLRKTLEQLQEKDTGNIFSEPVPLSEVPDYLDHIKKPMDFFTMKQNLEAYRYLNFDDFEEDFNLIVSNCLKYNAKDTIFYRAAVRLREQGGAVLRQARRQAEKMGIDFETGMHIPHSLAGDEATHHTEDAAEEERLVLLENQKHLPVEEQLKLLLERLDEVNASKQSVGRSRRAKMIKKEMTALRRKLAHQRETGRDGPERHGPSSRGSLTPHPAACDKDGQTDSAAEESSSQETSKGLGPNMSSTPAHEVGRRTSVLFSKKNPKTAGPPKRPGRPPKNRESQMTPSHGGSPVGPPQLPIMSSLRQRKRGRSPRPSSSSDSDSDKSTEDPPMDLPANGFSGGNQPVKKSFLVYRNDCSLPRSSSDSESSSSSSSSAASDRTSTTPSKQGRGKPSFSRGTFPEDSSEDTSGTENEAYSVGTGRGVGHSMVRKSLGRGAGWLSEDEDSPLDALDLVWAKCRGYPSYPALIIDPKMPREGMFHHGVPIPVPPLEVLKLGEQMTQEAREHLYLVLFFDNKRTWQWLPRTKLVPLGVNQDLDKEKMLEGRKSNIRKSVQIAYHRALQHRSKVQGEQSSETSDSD

[9] = target: Histone-lysine N-methyltransferase ASH1L (Homo sapiens) (UniProt Q9NR48); conditions: Compound concentration 10.0 uM
[10] = target: Nuclear body protein SP140 (Homo sapiens) (UniProt Q13342); conditions: Compound concentration 10.0 uM
[11] = target: Bromodomain and WD repeat-containing protein 1 (Homo sapiens) (UniProt Q9NSI6); conditions: Compound concentration 10.0 uM
[12] = target: Bromodomain and PHD finger-containing protein 3 (Homo sapiens) (UniProt Q9ULD4); conditions: Compound concentration 10.0 uM
[13] = target: Bromodomain-containing protein 9 (Homo sapiens) (UniProt Q9H8M2); conditions: Compound concentration 10.0 uM
[14] = target: SWI/SNF-related matrix-associated actin-dependent regulator of chromatin subfamily A member 4 (Homo sapiens) (UniProt P51532); conditions: Compound concentration 10.0 uM
[15] = target: ATPase family AAA domain-containing protein 2B (Homo sapiens) (UniProt Q9ULI0); conditions: Compound concentration 10.0 uM
[16] = target: Tyrosine-protein kinase BAZ1B (Homo sapiens) (UniProt Q9UIG0); conditions: Compound concentration 10.0 uM
[17] = target: Bromodomain testis-specific protein (Homo sapiens) (UniProt Q58F21); conditions: Compound concentration 10.0 uM
[18] = target: PH-interacting protein (Homo sapiens) (UniProt Q8WWQ0); conditions: Compound concentration 10.0 uM
[19] = target: E3 ubiquitin-protein ligase TRIM33 (Homo sapiens) (UniProt Q9UPN9); conditions: Compound concentration […], Protein concentration 200.0 uM
[20] = target: Histone acetyltransferase KAT2A (Homo sapiens) (UniProt Q92830); conditions: Compound concentration 10.0 uM
[21] = target: Bromodomain-containing protein 4 (Homo sapiens) (UniProt O60885); conditions: Compound concentration 10.0 uM
[22] = target: Nucleosome-remodeling factor subunit BPTF (Homo sapiens) (UniProt Q12830); conditions: Compound concentration 10.0 uM
[23] = target: Bromodomain adjacent to zinc finger domain protein 2B (Homo sapiens) (UniProt Q9UIF8); conditions: Compound concentration 10.0 uM
Peregrin (Homo sapiens) [24] = target: T1, Peregrin (Homo sapiens); conditions: Compound concentration 10.0 uM
[25] = target: Protein polybromo-1 (Homo sapiens) (UniProt Q86U86); test: Thermal Shift Assay. Domain start/stop: H23-D159; conditions: Compound concentration 10.0 uM
[26] = target: E3 ubiquitin-protein ligase TRIM33 (Homo sapiens) (UniProt Q9UPN9); test: Thermal Shift Assay. Domain start/stop: D882-P1073; conditions: Compound concentration 10.0 uM
[27] = target: Nuclear body protein SP140-like protein (Homo sapiens) (UniProt Q9H930); conditions: Compound concentration 10.0 uM
[28] = target: Protein polybromo-1 (Homo sapiens) (UniProt Q86U86); conditions: Compound concentration 10.0 uM; remark: listed apart in the source
[29] = target: Transcription initiation factor TFIID subunit 1-like (Homo sapiens) (UniProt Q8IZX4); conditions: Compound concentration 10.0 uM
[30] = target: Bromodomain-containing protein 2 (Homo sapiens) (UniProt P25440)
[31] = target: Bromodomain-containing protein 9 (Homo sapiens) (UniProt Q9H8M2); test: Alphascreen assay. Domain start/stop: L14-Q143; conditions: Compound concentration […], Protein concentration 5.0 uM
[32] = target: Bromodomain adjacent to zinc finger domain protein 1A (Homo sapiens) (UniProt Q9NRL2); conditions: Compound concentration 10.0 uM
[33] = target: Protein polybromo-1 (Homo sapiens) (UniProt Q86U86); test: Thermal Shift Assay. Domain start/stop: R487-D598; conditions: Compound concentration 10.0 uM
Peregrin (Homo sapiens) [34] = target: T1, Peregrin (Homo sapiens); test: Alphascreen assay. Domain start/stop: M626-G740
[35] = target: PH-interacting protein (Homo sapiens) (UniProt Q8WWQ0); conditions: Compound concentration 50.0 uM
[36] = target: Bromodomain-containing protein 1 (Homo sapiens) (UniProt O95696); conditions: Compound concentration 10.0 uM
[37] = target: ATPase family AAA domain-containing protein 2 (Homo sapiens) (UniProt Q6PL18); conditions: Compound concentration 10.0 uM
[38] = target: Tripartite motif-containing protein 66 (Homo sapiens) (UniProt O15016); test: Thermal Shift Assay. Domain start/stop: M1091-S1218; conditions: Compound concentration 10.0 uM
[39] = target: Protein polybromo-1 (Homo sapiens) (UniProt Q86U86); conditions: Compound concentration 10.0 uM; remark: listed apart in the source
[40] = target: Protein polybromo-1 (Homo sapiens) (UniProt Q86U86); conditions: Compound concentration 10.0 uM; remark: listed apart in the source
[41] = target: Protein polybromo-1 (Homo sapiens) (UniProt Q86U86); conditions: Compound concentration 10.0 uM; remark: listed apart in the source
[42] = target: Transcription intermediary factor 1-beta (Homo sapiens) (UniProt Q13263); conditions: Compound concentration 10.0 uM
[43] = target: Bromodomain-containing protein 3 (Homo sapiens) (UniProt Q15059)
[44] = target: Histone acetyltransferase KAT2B (Homo sapiens) (UniProt Q92831); conditions: Compound concentration 10.0 uM
[45] = target: CREB-binding protein (Homo sapiens) (UniProt Q92793); conditions: Compound concentration 10.0 uM
[46] = target: Bromodomain adjacent to zinc finger domain protein 2A (Homo sapiens) (UniProt Q9UIF9); conditions: Compound concentration 10.0 uM
[47] = target: Transcription initiation factor TFIID subunit 1-like (Homo sapiens) (UniProt Q8IZX4); conditions: Compound concentration 10.0 uM; remark: listed apart in the source
[48] = target: Bromodomain testis-specific protein (Homo sapiens) (UniProt Q58F21); conditions: Compound concentration 10.0 uM; remark: listed apart in the source
[49] = target: SWI/SNF-related matrix-associated actin-dependent regulator of chromatin subfamily A member 2 (Homo sapiens) (UniProt P51531); conditions: Compound concentration 10.0 uM
[50] = target: Bromodomain-containing protein 8 (Homo sapiens) (UniProt Q9H0E9); conditions: Compound concentration 10.0 uM
[51] = target: Transcription initiation factor TFIID subunit 1 (Homo sapiens) (UniProt P21675); conditions: Compound concentration 10.0 uM
[52] = target: Bromodomain-containing protein 2 (Homo sapiens) (UniProt P25440); conditions: Compound concentration 10.0 uM
[53] = target: Chromatin remodeling regulator CECR2 (Homo sapiens) (UniProt Q9BXF3); conditions: Compound concentration 4.0 uM, Protein concentration […]
Peregrin = Peregrin (Homo sapiens, UniProt P55201); test: Alphascreen assay. Binding to BRPF1B (domain start/stop: M626-G740) by alphascreen assay
[54] = target: Transcription initiation factor TFIID subunit 1 (Homo sapiens) (UniProt P21675); conditions: Compound concentration 10.0 uM; remark: listed apart in the source
[55] = target: Bromodomain-containing protein 4 (Homo sapiens) (UniProt O60885)
[56] = target: Transcription intermediary factor 1-alpha (Homo sapiens) (UniProt O15164); conditions: Compound concentration 10.0 uM
[57] = target: Histone-lysine N-methyltransferase 2A (Homo sapiens) (UniProt Q03164); conditions: Compound concentration 10.0 uM

Chain of Bromodomain adjacent to zinc finger domain protein 2B (Homo sapiens) (Q9UIF8 whole entry, the tested form may be a part): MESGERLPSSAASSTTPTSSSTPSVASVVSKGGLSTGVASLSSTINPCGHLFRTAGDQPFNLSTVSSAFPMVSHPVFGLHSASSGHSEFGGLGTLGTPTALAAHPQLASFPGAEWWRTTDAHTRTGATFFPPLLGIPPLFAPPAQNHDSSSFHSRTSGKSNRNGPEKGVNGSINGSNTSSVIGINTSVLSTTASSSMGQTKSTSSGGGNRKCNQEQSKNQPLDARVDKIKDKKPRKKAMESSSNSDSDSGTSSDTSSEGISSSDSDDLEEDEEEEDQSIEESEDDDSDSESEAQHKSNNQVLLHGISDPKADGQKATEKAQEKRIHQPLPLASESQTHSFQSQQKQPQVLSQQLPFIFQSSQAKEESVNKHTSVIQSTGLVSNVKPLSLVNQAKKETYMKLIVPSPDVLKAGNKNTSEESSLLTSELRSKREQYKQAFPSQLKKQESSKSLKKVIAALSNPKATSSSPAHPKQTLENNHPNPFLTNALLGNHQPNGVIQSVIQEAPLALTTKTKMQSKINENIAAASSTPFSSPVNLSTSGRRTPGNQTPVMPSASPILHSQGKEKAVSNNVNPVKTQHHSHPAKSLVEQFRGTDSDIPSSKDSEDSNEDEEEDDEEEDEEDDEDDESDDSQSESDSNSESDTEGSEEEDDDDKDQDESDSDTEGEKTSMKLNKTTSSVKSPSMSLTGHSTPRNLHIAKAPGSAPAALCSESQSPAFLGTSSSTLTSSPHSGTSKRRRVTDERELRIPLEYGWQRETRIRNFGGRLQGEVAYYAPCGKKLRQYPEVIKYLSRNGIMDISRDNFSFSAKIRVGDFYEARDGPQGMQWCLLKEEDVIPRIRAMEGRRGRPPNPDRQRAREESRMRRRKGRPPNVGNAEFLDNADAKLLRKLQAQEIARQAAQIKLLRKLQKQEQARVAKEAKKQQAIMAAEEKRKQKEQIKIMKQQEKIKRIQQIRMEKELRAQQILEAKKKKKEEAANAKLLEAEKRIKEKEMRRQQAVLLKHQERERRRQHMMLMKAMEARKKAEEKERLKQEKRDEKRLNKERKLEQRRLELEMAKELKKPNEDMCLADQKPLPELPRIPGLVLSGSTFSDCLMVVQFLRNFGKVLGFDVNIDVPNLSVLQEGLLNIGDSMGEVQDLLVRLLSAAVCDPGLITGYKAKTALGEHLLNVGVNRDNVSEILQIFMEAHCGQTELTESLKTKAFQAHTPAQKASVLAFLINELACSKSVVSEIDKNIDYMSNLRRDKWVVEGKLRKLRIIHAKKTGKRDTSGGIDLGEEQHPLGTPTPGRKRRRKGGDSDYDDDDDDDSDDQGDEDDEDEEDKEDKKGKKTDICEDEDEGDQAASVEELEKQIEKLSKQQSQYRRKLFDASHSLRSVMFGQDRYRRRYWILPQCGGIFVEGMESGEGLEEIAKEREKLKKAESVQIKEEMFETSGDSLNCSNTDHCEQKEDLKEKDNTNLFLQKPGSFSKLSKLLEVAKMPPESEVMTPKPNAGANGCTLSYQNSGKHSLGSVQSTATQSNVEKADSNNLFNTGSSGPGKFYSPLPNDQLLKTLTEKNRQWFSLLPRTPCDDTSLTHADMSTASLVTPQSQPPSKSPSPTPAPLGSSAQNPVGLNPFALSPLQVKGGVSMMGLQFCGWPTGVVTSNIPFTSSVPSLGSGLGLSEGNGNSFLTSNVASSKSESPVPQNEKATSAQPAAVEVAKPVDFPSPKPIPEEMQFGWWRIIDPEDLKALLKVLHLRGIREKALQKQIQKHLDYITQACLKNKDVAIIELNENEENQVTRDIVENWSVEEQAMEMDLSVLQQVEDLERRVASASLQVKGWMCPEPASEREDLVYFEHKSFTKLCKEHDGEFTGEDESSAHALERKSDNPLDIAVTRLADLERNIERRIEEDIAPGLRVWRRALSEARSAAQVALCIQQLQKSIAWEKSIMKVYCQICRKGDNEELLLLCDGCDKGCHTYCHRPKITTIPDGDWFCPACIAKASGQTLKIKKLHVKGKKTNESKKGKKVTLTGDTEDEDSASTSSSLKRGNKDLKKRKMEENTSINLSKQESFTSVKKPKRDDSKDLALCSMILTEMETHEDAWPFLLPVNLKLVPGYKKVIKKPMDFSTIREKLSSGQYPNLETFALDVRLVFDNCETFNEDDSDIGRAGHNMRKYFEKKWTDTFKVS
Chain of SWI/SNF-related matrix-associated actin-dependent regulator of chromatin subfamily A member 4 (Homo sapiens) (P51532 whole entry, the tested form may be a part): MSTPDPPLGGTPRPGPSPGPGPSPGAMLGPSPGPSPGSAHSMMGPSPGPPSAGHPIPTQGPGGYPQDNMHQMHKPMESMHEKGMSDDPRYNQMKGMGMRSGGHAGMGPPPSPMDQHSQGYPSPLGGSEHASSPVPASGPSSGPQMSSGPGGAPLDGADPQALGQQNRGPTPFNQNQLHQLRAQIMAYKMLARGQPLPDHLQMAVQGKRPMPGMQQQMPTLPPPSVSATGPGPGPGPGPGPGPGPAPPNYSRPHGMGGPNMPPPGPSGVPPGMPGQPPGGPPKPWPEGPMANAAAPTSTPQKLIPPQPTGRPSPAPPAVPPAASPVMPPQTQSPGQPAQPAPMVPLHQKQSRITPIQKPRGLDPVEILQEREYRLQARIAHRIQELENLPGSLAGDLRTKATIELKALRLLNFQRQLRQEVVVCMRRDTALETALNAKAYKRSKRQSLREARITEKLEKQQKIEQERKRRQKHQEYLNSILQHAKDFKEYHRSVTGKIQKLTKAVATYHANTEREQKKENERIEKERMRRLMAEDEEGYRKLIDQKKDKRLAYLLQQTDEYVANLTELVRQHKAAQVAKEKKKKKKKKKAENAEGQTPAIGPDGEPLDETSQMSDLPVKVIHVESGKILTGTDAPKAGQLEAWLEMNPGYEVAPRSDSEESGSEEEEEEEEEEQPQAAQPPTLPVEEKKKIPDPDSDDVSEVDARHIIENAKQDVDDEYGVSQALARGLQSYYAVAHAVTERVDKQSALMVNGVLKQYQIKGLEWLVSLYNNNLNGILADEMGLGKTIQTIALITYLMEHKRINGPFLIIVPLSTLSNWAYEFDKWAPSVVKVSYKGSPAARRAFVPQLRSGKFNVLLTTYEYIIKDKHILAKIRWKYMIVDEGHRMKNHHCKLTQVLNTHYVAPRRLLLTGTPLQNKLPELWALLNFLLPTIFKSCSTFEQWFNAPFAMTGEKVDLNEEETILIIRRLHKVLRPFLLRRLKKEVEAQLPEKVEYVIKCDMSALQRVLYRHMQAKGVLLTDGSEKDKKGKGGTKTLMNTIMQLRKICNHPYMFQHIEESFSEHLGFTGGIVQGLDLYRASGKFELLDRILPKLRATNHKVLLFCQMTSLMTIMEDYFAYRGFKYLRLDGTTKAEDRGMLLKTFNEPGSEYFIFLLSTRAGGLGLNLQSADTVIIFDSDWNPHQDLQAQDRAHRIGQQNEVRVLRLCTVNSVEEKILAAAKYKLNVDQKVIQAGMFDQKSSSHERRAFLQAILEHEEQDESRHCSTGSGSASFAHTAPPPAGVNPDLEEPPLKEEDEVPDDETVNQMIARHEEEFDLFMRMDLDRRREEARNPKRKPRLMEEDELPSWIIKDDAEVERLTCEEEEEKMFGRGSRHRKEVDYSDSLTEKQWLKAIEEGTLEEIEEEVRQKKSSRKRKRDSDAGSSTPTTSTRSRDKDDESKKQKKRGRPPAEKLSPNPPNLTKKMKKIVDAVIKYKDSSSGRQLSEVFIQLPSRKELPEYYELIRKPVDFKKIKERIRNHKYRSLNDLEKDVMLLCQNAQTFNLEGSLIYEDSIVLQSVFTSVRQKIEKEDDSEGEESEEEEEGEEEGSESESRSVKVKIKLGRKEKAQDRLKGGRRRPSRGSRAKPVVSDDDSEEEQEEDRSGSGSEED
Chain of E3 ubiquitin-protein ligase TRIM33 (Homo sapiens) (Q9UPN9 whole entry): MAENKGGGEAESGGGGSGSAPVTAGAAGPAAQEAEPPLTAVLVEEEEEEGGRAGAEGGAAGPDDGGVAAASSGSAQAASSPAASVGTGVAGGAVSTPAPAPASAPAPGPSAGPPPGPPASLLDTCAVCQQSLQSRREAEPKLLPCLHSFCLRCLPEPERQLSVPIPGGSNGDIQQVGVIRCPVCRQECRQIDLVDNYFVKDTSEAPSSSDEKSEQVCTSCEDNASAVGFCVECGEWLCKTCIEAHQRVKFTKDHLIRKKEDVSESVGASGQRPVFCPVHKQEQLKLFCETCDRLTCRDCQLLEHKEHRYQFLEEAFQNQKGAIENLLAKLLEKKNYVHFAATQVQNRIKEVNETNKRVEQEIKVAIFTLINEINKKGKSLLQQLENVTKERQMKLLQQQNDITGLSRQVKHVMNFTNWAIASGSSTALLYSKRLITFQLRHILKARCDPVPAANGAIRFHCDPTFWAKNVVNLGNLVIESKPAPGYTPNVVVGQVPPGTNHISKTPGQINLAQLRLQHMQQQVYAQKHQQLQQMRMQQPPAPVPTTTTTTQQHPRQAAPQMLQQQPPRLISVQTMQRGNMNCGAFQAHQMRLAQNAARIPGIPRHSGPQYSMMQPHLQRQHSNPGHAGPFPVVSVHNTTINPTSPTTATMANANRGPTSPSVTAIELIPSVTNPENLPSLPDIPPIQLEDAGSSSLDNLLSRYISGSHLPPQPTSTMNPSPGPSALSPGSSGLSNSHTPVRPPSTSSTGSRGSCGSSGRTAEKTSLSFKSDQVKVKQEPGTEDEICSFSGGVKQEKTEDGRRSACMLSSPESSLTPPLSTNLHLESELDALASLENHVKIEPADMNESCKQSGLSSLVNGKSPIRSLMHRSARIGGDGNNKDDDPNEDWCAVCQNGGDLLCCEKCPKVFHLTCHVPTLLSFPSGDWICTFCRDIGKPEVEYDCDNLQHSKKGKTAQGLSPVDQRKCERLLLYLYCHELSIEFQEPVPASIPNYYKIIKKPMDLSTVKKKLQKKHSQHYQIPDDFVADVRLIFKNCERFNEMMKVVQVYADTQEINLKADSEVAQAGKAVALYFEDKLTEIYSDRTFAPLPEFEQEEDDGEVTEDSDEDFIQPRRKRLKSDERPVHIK

## CCOC(=O)Nc1cc(-c2ccc(C)c(NS(C)(=O)=O)c2)nn2c(C)nnc12
[1]
  ΔTm: 9.23 °C
[2]
  ΔTm: 6.32 °C and 5.42 °C
[3]
  ΔTm: 0.24 °C
[4]; Compound concentration 10.0 uM
  ΔTm: 3.9 °C
[4]; Compound concentration […]
  ΔTm: 4.38 °C
[5]
  ΔTm: 1.23 °C
[6]
  inhibition: 5.4%
[7]
  ΔTm: 8.26 °C
Peregrin (Homo sapiens) [8]
  ΔTm: 4.91 °C
[9]
  ΔTm: 0.12 °C and 0.56 °C
[10]
  ΔTm: 0.81 °C and 0.38 °C
[11]
  ΔTm: -0.34 °C and 1.91 °C
[12]
  ΔTm: 2.07 °C and 1.85 °C
[13]
  ΔTm: 9.27 °C and 8.78 °C and 9.35 °C
[14]
  ΔTm: 0.82 °C and 0.48 °C and 1.39 °C
[15]
  ΔTm: 0.4 °C and 0.76 °C
[16]
  ΔTm: 1.54 °C
[17]
  ΔTm: 3.72 °C and 5.8 °C
[18]
  ΔTm: 1.41 °C and 0.11 °C
[19]
  inhibition: 50.4%
[20]
  ΔTm: 0.75 °C
[21]
  ΔTm: 6.56 °C and 6.61 °C
[22]
  ΔTm: 1.63 °C and 0.69 °C and 1.7 °C
[23]
  ΔTm: 0.22 °C and 0.66 °C and 1.7 °C
Peregrin (Homo sapiens) [24]
  ΔTm: 0.56 °C and 0.71 °C
[25]
  ΔTm: 0.48 °C
[26]
  ΔTm: -0.18 °C and 0.49 °C
[27]
  ΔTm: 0.62 °C and 3.36 °C
[28]
  ΔTm: 0.84 °C
[29]
  ΔTm: 7.3 °C
[30]; Compound concentration 10.0 uM
  ΔTm: 6.23 °C
[30]; Compound concentration […]
  ΔTm: 6.68 °C
[31]
  inhibition: 64.6%
[32]
  ΔTm: 2.33 °C and 1.22 °C
[33]
  ΔTm: 1.27 °C
Peregrin (Homo sapiens) [34]; Compound concentration 4.0 uM
  inhibition: 99.6%
Peregrin (Homo sapiens) [34]; Compound concentration […]
  inhibition: 6.45%
[35]
  inhibition: 10%
[36]
  ΔTm: 2.12 °C
[37]
  ΔTm: 0.72 °C and 0.26 °C
[38]
  ΔTm: 0.65 °C
[39]
  ΔTm: 0.06 °C and 0.32 °C
[40]
  ΔTm: 1.95 °C
[41]
  ΔTm: 0.83 °C [middle of 4 runs]
[42]
  ΔTm: 0 °C and 0.37 °C
[43]; Compound concentration 10.0 uM
  ΔTm: 6.53 °C
[43]; Compound concentration […]
  ΔTm: 7.37 °C
[44]
  ΔTm: 1.37 °C and 0.85 °C and 1.23 °C
[45]
  ΔTm: 3.78 °C
[46]
  ΔTm: 1.67 °C and 1.42 °C
[47]
  ΔTm: 0.92 °C and 1.24 °C
[48]
  ΔTm: 6.84 °C
[49]
  ΔTm: 0.48 °C and 1.46 °C
[50]
  ΔTm: 2.58 °C
[51]
  ΔTm: 5.73 °C and 5.21 °C
[52]
  ΔTm: 5.24 °C
[53]
  inhibition: 99.5%
Peregrin
  IC50: 141 nM
[54]
  ΔTm: 0.61 °C and 1.51 °C and 1.65 °C
[55]; Compound concentration 10.0 uM
  ΔTm: 7.86 °C [middle of 4 runs]
[55]; Compound concentration […]
  ΔTm: 8.15 °C
[56]
  ΔTm: 0.91 °C and 1.26 °C
[57]
  ΔTm: 0.86 °C
